Patent US11179399B2, “6-heterocyclyl-4-morpholin-4-ylpyridine-2-one compounds useful for the treatment of cancer and diabetes” (Sprint Bioscience AB, priority 2016, dated 2021)

Target: Vps34 enzyme (Homo sapiens (Human), UniProt Q8NEB9)
Assay: Vps34 biochemical assay (Adapta kinase assay)
Conditions: 20 μM ATP and 200 μM PI:PS in substrate mix, 1 h at room temperature, read-out: Median IC50 uM Adapta
Procedure: Dilution series of compounds of the invention were prepared in DMSO at 100 times the final assay concentration (n1=n0/3 in 10 points). The compounds were further diluted to 4 times the assay concentration in assay buffer (Life technologies buffer Q, PV5125, diluted 5 times supplemented with 2 mM DTT and 2 mM MnCl2). 2.5 μl of the diluted compounds were added to a 384 well assay plate followed by 2.5 μl of 16.5 nM Vps34 enzyme (Life technologies, PV5126). Enzyme and compounds were pre-incubated at rt for 15 min. Then 5 μl of substrate mix containing 20 μM ATP (Life technologies, PV3227) and 200 μM PI:PS substrate (Life technologies, PV5122) in assay buffer was added to the wells containing compound and enzyme. Mixing was performed by pipetting several times. The reaction was incubated at room temperature for 1 h. Then 5 μl stop-detection mix, prepared as described in the Adapta kinase assay kit instructions (Life technologies, PV5099) containing Adapta Eu-anti-ADP antibody (2.3 nM), Alexa Fluor 647 ADP tracer (9 nM) and EDTA (30 mM) in TR-FRET buffer, was added to quench the reaction. Mixing was performed by pipetting several times. The assay plate was then incubated at room temperature for 30 min and read with Artemis micro plate reader. Percent inhibition of the compounds as compared to DMSO treated control samples was calculated. By the use of Dotmatics software compound concentration versus percent inhibition was fitted to generate IC50 values.

Chain of Vps34 enzyme (Q8NEB9 whole entry): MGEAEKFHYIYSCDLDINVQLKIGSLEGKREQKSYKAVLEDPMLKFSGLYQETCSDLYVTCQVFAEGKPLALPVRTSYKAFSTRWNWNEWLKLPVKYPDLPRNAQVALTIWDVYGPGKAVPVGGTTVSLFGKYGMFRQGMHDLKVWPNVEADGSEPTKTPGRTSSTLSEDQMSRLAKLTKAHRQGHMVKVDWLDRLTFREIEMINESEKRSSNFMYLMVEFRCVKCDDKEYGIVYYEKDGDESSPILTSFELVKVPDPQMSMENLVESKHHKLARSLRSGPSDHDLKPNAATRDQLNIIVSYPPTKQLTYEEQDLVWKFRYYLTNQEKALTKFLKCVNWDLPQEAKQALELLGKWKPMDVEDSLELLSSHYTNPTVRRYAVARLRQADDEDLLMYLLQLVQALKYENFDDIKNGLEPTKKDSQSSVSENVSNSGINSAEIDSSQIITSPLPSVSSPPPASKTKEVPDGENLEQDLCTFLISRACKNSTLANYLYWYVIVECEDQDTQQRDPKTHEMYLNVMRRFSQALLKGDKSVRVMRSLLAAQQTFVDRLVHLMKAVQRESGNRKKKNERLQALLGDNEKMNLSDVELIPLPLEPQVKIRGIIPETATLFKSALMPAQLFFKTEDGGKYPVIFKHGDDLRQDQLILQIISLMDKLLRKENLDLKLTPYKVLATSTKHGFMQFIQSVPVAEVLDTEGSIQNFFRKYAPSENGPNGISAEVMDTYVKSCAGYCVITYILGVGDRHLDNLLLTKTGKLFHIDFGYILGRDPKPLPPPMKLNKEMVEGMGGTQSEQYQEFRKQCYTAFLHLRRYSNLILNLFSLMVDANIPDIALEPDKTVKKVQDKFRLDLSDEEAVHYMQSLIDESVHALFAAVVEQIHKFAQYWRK

SMILES | IC50 [µM]
Cn1c(N2CCCC2c2ccccc2)cc(N2CCOCC2)cc1=O (centres unmarked) [Example 2, 1-methyl-4-morpholino-6-(2-phenylpyrrolidin-1-yl)pyridin-2-one] | 0.1
COc1cccc(C2CCCN2c2cc(N3CCOC[C@H]3C)cc(=O)[nH]2)c1 (single isomer, unassigned) [Example 17_1] | 0.02
CCn1ccc(C2CCCN2c2cc(N3CCOC[C@H]3C)cc(=O)[nH]2)n1 (single isomer, unassigned) [Example 21_2] | 0.3
C[C@@H]1COCCN1c1cc(N2CCCC2c2ccccn2)[nH]c(=O)c1 (mixture of isomers) [Example 38, (R) and (S) 4-[(3R)-3-methylmorpholin-4-yl]-6-[2-(2-pyridyl)pyrrolidin-1-yl]-1H-pyridin-2-one] | 0.05
C[C@@H]1COCCN1c1cc(N2CCCC2c2cnn(C)c2)[nH]c(=O)c1 (single isomer, unassigned) [Example 19_1] | 0.3
C[C@@H]1COCCN1c1cc(N2CCN(C)CC2C(F)(F)F)[nH]c(=O)c1 (stereo partly drawn) [Example 49, 4-[(3R)-3-methylmorpholin-4-yl]-6-[4-methyl-2-(trifluoromethyl)piperazin-1-yl]-1H-pyridin-2-one] | 0.03
C[C@@H]1COCCN1c1cc(N2CCN(C(=O)C3CCCO3)CC2C(F)(F)F)[nH]c(=O)c1 (single isomer, unassigned) [Example 48_2] | 0.02
C[C@@H]1COCCN1c1cc(N2CCCCC2C(F)(F)F)[nH]c(=O)c1 (single isomer, unassigned) [Example 25_2] | 0.08
C[C@@H]1COCCN1c1cc(N2CCCC2c2cc(F)ccc2F)[nH]c(=O)c1 (single isomer, unassigned) [Example 14_2] | 0.05
Cc1cc(C2CCCN2c2cc(N3CCOC[C@H]3C)cc(=O)[nH]2)nn1C (mixture of isomers) [Example 20, (R) and (S) 6-[2-(1,5-dimethylpyrazol-3-yl)pyrrolidin-1-yl]-4-[(3R)-3-methylmorpholin-4-yl]-1H-pyridin-2-one] | 0.2
Cc1cc(C2CCCN2c2cc(N3CCOC[C@H]3C)cc(=O)[nH]2)no1 (mixture of isomers) [Example 40, (R) and (S) 6-[2-(5-methylisoxazol-3-yl)pyrrolidin-1-yl]-4-[(3R)-3-methylmorpholin-4-yl]-1H-pyridin-2-one] | 0.1
C[C@@H]1COCCN1c1cc(N2CCCC2c2cccc(OC(F)(F)F)c2)[nH]c(=O)c1 (mixture of isomers) [Example 15, (R) and (S) 4-[(3R)-3-methylmorpholin-4-yl]-6-[2-[3-(trifluoromethoxy)phenyl]pyrrolidin-1-yl]-1H-pyridin-2-one] | 0.06
CCn1ccc(C2CCCN2c2cc(N3CCOC[C@H]3C)cc(=O)[nH]2)n1 (single isomer, unassigned) [Example 21_1] | 0.1
COc1cccc(C2CCCCN2c2cc(N3CCOC[C@H]3C)cc(=O)[nH]2)c1 (single isomer, unassigned) [Example 44_2] | 0.006
C[C@@H]1COCCN1c1cc(N2CCCC2c2ccccn2)[nH]c(=O)c1 (single isomer, unassigned) [Example 38_1] | 0.05
Cc1ccc(C2CCCN2c2cc(N3CCOC[C@H]3C)cc(=O)[nH]2)o1 (mixture of isomers) [Example 22, (R) and (S) 6-[2-(5-methyl-2-furyl)pyrrolidin-1-yl]-4-[(3R)-3-methylmorpholin-4-yl]-1H-pyridin-2-one] | 0.06
C[C@@H]1COCCN1c1cc(N2CCCC2C2CCCCC2)[nH]c(=O)c1 (single isomer, unassigned) [Example 12_1] | 0.2
Cc1ccc(C2CCCN2c2cc(N3CCOC[C@H]3C)cc(=O)[nH]2)o1 (single isomer, unassigned) [Example 22_1] | 0.04
C[C@@H]1COCCN1c1cc(N2CCS(=O)(=O)CC2)[nH]c(=O)c1 [Example 28, 6-(1,1-dioxo-1,4-thiazinan-4-yl)-4-[(3R)-3-methylmorpholin-4-yl]-1H-pyridin-2-one] | 0.4

Other lines, results leading:

IC50 [µM] | SMILES
0.2 | CC(=O)N1CCN(c2cc(N3CCOC[C@H]3C)cc(=O)[nH]2)CC1 [Example 29, 6-(4-acetylpiperazin-1-yl)-4-[(3R)-3-methylmorpholin-4-yl]-1H-pyridin-2-one]
0.3 | COC(C)(C)C1CCCN1c1cc(N2CCOC[C@H]2C)cc(=O)[nH]1 (single isomer, unassigned) [Example 11_2]
0.09 | C[C@@H]1COCCN1c1cc(N2CCCC2C2CCCCC2)[nH]c(=O)c1 (mixture of isomers) [Example 12, (R) and (S) 6-(2-cyclohexylpyrrolidin-1-yl)-4-[(3R)-3-methylmorpholin-4-yl]-1H-pyridin-2-one]
0.1 | C[C@@H]1COCCN1c1cc(N2CCOCC2C(F)(F)F)[nH]c(=O)c1 (single isomer, unassigned) [Example 43_2]
0.08 | C[C@@H]1COCCN1c1cc(N2CCCC2c2cccc(C(F)(F)F)c2)[nH]c(=O)c1 (single isomer, unassigned) [Example 16_2]
0.06 | C[C@@H]1COCCN1c1cc(N2CCOCC2c2ccccc2)[nH]c(=O)c1 (mixture of isomers) [Example 26, (R) and (S) 4-[(3R)-3-methylmorpholin-4-yl]-6-(3-phenylmorpholin-4-yl)-1H-pyridin-2-one]
0.01 | C[C@@H]1COCCN1c1cc(N2CCN(C(=O)C3CCCO3)CC2C(F)(F)F)[nH]c(=O)c1 (single isomer, unassigned) [Example 48_1]
0.2 | Cc1cc(C2CCCN2c2cc(N3CCOC[C@H]3C)cc(=O)[nH]2)nn1C (single isomer, unassigned) [Example 20_2]
0.2 | C[C@@H]1COCCN1c1cc(N2CCCC2c2cccc(OC(F)(F)F)c2)[nH]c(=O)c1 (single isomer, unassigned) [Example 15_2]
0.1 | C[C@@H]1COCCN1c1cc(N2CCCC2c2cnn(C)c2)[nH]c(=O)c1 (mixture of isomers) [Example 19, (R) and (S) 4-[(3R)-3-methylmorpholin-4-yl]-6-[2-(1-methylpyrazol-4-yl)pyrrolidin-1-yl]-1H-pyridin-2-one]
0.1 | Cc1ccc(C2CCCN2c2cc(N3CCOC[C@H]3C)cc(=O)[nH]2)o1 (single isomer, unassigned) [Example 22_2]
0.06 | C[C@@H]1COCCN1c1cc(N2CCCC2c2cccc(F)c2)[nH]c(=O)c1 (single isomer, unassigned) [Example 13_1]
0.3 | C[C@@H]1COCCN1c1cc(N2CCCC2c2cnn(C)c2)[nH]c(=O)c1 (single isomer, unassigned) [Example 19_2]
0.06 | C[C@@H]1COCCN1c1cc(N2CCCC2c2ccccc2)[nH]c(=O)c1 (mixture of isomers) [Example 18, (R) and (S) 4-[(3R)-3-methylmorpholin-4-yl]-6-(2-phenylpyrrolidin-1-yl)-1H-pyridin-2-one]
0.04 | C[C@@H]1COCCN1c1cc(N2CCCC2c2cc(F)ccc2F)[nH]c(=O)c1 (mixture of isomers) [Example 14, (R) and (S) 6-[2-(2,5-difluorophenyl)pyrrolidin-1-yl]-4-[(3R)-3-methylmorpholin-4-yl]-1H-pyridin-2-one]
0.4 | C[C@@H]1COCCN1c1cc(N2CCCC2C(=O)N(C)C)[nH]c(=O)c1 (stereo partly drawn) [Example 10, N,N-dimethyl-1-[4-[(3R)-3-methylmorpholin-4-yl]-6-oxo-1H-pyridin-2-yl]pyrrolidine-2-carboxamide]
0.2 | C[C@@H]1COCCN1c1cc(N2CCCC2c2ccccn2)[nH]c(=O)c1 (single isomer, unassigned) [Example 38_2]
0.3 | C[C@@H]1COCCN1c1cc(N2CCOCC2c2ccccc2)[nH]c(=O)c1 (single isomer, unassigned) [Example 26_2]
0.03 | CC1COCCN1c1cc(N2CCOC[C@H]2C)cc(=O)[nH]1 (mixture of isomers) [Example 24, (R) and (S) 4-[(3R)-3-methylmorpholin-4-yl]-6-(3-methylmorpholin-4-yl)-1H-pyridin-2-one]
0.03 | C[C@@H]1COCCN1c1cc(N2CCCC2c2cccc(C(F)(F)F)c2)[nH]c(=O)c1 (single isomer, unassigned) [Example 16_1]
0.2 | C[C@@H]1COCCN1c1cc(N2CCCC2c2cccc(OC(F)(F)F)c2)[nH]c(=O)c1 (single isomer, unassigned) [Example 15_1]
0.2 | COC(C)(C)C1CCCN1c1cc(N2CCOC[C@H]2C)cc(=O)[nH]1 (single isomer, unassigned) [Example 11_1]
0.06 | Cc1cc(C2CCCN2c2cc(N3CCOC[C@H]3C)cc(=O)[nH]2)nn1C (single isomer, unassigned) [Example 20_1]
0.06 | CCn1ccc(C2CCCN2c2cc(N3CCOC[C@H]3C)cc(=O)[nH]2)n1 (mixture of isomers) [Example 21, (R) and (S) 6-[2-(1-ethylpyrazol-3-yl)pyrrolidin-1-yl]-4-[(3R)-3-methylmorpholin-4-yl]-1H-pyridin-2-one]
0.09 | COC(C)(C)C1CCCN1c1cc(N2CCOC[C@H]2C)cc(=O)[nH]1 (mixture of isomers) [Example 11, (R) and (S) 6-[2-(1-methoxy-1-methyl-ethyl)pyrrolidin-1-yl]-4-[(3R)-3-methylmorpholin-4-yl]-1H-pyridin-2-one]
